{
  "source": "patent US20210205415A1",
  "about": "(Longevity Biotech, Inc., priority 2010, published 2021)",
  "key": {"[1]": {"biological_target": "T1, VIPR1 (Homo sapiens, UniProt P32241)", "T1 sequence (P32241 31-457)": "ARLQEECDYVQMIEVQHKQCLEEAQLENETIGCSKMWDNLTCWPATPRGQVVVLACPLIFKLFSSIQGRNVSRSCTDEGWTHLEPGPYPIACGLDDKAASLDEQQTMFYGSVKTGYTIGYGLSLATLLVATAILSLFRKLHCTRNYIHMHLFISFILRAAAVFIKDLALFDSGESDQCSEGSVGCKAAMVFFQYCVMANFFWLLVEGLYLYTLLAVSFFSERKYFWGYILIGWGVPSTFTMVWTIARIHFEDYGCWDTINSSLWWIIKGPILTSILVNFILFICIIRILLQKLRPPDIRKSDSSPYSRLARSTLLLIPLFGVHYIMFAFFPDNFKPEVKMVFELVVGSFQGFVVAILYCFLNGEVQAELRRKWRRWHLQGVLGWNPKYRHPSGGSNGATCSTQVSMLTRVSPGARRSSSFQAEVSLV", "test": "cAMP Hunter cell line agonist mode assay (DiscoveRx HitHunter cAMP XS+)", "type": "cell-based", "conditions": "for Mean RLU: readout cAMP, cell line VIPR1", "method": "(§1) Once it was established that the cells were healthy and growing normally, cells were passaged from flasks using cell dissociation reagent buffer and seeded into white walled clear bottom 384-well microplates for compound profiling. For profiling, cells were seeded at a density of 10,000 cells per well in a total volume of 20 μL and were allowed to adhere and recover overnight prior to compound addition. cAMP modulation was determined using the DiscoveRx HitHunter cAMP XS+ assay.\n(§2) For profiling compound in agonist mode, the cells were incubated in the presence of compound at 37° C. for 30 minutes. […] After appropriate compound incubation, assay signal was generated through incubation with DiscoverX lysis cocktail according to the manufacturers standard protocol. Dose curves were plotted using GraphPad Prism or Activity Base. Percentage activity is calculated using the following formula:\n(§3) % Activity=100% ×(mean RLU of test sample−mean RLU of vehicle control)/(mean RLU of MAX control−mean RLU of vehicle control)."}, "[2]": {"biological_target": "T2, VIPR2 (Homo sapiens, UniProt P41587)", "T2 sequence (P41587 24-438)": "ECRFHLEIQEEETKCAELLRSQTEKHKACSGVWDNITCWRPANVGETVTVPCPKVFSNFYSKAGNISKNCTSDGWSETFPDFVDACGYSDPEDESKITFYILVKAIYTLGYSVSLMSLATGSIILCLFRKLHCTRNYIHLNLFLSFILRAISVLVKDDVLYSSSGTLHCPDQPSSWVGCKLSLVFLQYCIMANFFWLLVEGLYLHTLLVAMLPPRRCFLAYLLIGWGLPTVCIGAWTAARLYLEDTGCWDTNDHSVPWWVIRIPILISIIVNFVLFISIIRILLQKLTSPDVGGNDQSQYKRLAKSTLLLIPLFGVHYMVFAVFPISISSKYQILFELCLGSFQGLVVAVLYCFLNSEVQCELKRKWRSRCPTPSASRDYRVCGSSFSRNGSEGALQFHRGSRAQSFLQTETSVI", "test": "cAMP Hunter cell line agonist mode assay (DiscoveRx HitHunter cAMP XS+)", "type": "cell-based", "conditions": "for Mean RLU: readout cAMP, cell line VIPR2", "method": "as §1, §2, §3"}, "[3]": {"biological_target": "mouse CRF2β (Mus musculus, UniProt Q60748)", "sequence (Q60748 1-431 isoform Q60748-2)": "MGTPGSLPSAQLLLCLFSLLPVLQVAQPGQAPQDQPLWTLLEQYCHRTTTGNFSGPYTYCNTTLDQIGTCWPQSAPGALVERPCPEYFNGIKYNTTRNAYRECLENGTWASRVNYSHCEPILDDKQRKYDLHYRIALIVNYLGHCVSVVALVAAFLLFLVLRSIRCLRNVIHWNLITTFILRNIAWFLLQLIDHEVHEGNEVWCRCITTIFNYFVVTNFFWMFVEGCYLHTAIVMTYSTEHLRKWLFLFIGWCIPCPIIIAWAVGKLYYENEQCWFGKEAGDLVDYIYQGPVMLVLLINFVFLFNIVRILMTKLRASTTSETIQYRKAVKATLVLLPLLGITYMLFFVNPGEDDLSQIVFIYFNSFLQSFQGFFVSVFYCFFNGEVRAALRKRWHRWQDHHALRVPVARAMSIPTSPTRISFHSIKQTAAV", "conditions": "read-out: Kd for binding to mouse CRF2β; cited from earlier work"}, "[4]": {"biological_target": "T3, rat CRF1 receptors (Rattus norvegicus, UniProt P35353)", "T3 sequence (P35353 24-415)": "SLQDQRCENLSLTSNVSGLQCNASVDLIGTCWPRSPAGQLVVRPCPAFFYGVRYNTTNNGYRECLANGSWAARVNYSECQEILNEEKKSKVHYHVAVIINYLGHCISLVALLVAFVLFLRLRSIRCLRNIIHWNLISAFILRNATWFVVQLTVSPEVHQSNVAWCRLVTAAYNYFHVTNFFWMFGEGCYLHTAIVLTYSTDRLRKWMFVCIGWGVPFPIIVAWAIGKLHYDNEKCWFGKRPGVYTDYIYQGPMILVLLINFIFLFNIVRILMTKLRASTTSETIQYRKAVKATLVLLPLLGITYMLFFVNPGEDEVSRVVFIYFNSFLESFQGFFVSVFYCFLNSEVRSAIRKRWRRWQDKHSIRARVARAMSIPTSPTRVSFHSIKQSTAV", "conditions": "read-out: Kd for binding to rat CRF1 receptors; cited from earlier work"}, "[5]": {"biological_target": "T4, HEK-mCRF2β cells (Mus musculus, UniProt Q60748)", "T4 construct": "expressed in transfected cells; host or cells: HEK cells (value quoted from the literature)", "T4 sequence (Q60748 1-431 isoform Q60748-2)": "as the sequence (Q60748 1-431 isoform Q60748-2) above", "conditions": "cited from earlier work"}, "[6]": {"biological_target": "T5, CRF2α (Homo sapiens, UniProt Q13324)", "T5 sequence (Q13324 1-411)": "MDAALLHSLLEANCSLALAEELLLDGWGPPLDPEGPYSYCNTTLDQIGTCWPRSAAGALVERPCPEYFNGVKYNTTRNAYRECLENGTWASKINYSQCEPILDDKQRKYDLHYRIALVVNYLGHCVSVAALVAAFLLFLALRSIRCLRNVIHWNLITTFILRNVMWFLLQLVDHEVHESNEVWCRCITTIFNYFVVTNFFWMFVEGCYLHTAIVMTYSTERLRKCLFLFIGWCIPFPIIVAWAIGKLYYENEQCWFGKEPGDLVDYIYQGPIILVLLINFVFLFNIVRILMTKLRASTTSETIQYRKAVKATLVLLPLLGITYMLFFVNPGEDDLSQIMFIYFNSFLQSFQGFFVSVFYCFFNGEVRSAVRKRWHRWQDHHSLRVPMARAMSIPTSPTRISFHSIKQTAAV", "conditions": "cited from earlier work"}, "[7]": {"system": "calcitonin (CT) receptor", "conditions": "cited from earlier work"}, "[8]": {"system": "calcitonin-gene related peptide (CGRP) and adrenomedullin receptors", "conditions": "cited from earlier work"}, "[9]": {"biological_target": "neurotensin receptors", "conditions": "rat brain receptors; read-out: IC50 for inhibition of {Trp11}-NT binding; cited from earlier work"}, "[10]": {"biological_target": "T6, Glucagon receptor (Rattus norvegicus, UniProt P30082)", "T6 construct": "from tissue; host or cells: rat liver membranes (value quoted from the literature)", "T6 sequence (P30082 27-485)": "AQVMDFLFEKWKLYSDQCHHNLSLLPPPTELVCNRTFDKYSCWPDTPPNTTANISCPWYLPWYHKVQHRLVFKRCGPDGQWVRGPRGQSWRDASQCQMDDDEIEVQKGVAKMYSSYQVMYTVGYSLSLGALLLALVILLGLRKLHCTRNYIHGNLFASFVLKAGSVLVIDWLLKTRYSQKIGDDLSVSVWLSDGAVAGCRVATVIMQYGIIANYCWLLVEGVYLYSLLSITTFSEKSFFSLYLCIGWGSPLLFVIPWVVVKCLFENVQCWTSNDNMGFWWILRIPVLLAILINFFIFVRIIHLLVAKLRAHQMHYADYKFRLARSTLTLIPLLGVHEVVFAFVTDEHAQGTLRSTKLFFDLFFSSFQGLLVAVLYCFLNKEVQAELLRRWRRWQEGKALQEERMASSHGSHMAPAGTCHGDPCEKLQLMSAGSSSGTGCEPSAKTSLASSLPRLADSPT", "conditions": "rat liver membranes; cited from earlier work"}, "[11]": {"conditions": "humans; cited from earlier work"}, "[12]": {"biological_target": "T7, VPAC1 receptor (Homo sapiens, UniProt P32241)", "T7 sequence (P32241 31-457)": "T1 sequence (P32241 31-457)", "conditions": "cited from earlier work"}, "[13]": {"biological_target": "T8, VPAC2 receptors (Homo sapiens, UniProt P41587)", "T8 sequence (P41587 24-438)": "T2 sequence (P41587 24-438)", "conditions": "read-out: IC50 for VPAC2 receptor; cited from earlier work"}},
  "note": "No end group written: not given here.",
  "data": [
    {"compound": "CC[C@H](C)[C@H](NC(=O)[C@H]1CCC[C@@H]1NC(=O)[C@H](CC(N)=O)NC(=O)[C@H](CC(C)C)NC(=O)[C@H](Cc1ccc(O)cc1)NC(=O)[C@H]1CNC[C@@H]1NC(=O)[C@H](CCCCN)NC(=O)[C@@H](NC(=O)[C@H]1CCC[C@@H]1NC(=O)[C@H](CC(C)C)NC(=O)[C@H](CCC(N)=O)NC(=O)[C@H](CCCCN)NC(=O)[C@H]1CNC[C@@H]1NC(=O)[C@H](CC(C)C)NC(=O)[C@H](CCCNC(=N)N)NC(=O)[C@H]1CCC[C@@H]1NC(=O)[C@H](Cc1ccc(O)cc1)NC(=O)[C@H](CC(N)=O)NC(=O)[C@H](CC(=O)O)NC(=O)[C@@H](NC(=O)[C@H](Cc1ccccc1)NC(=O)[C@@H](NC(=O)[C@H](C)NC(=O)[C@H](CC(=O)O)NC(=O)[C@H](CO)NC(=O)[C@@H](N)Cc1c[nH]cn1)C(C)C)[C@@H](C)O)C(C)C)C(=O)N[C@H](CC(=O)NC(CC(N)=O)CC(N)=O)CC(C)C", "note": "[Compound 8, HSDAVFTDNYXRLZKQLXVKZYLNXILN]", "values": [
      {"measurement": "EC50 compared with wild-type VIP", "setting": "[1]; FIG. 3 legend", "result": "higher than the EC50 of wild-type VIP protein"},
      {"measurement": "Emax", "setting": "[1]; FIG. 3 legend, read-out: activation of VIPR1 relative to maximum activation", "result": "~100", "unit": "%"},
      {"measurement": "Mean RLU", "setting": "[1]; [Compound] 1.00E−08 M, agonist mode", "result": 13750.0, "unit": "RLU"},
      {"measurement": "Mean RLU", "setting": "[1]; [Compound] 1.00E−09 M, agonist mode", "result": 18600.0, "unit": "RLU"},
      {"measurement": "Mean RLU", "setting": "[1]; [Compound] 1.00E−10 M, agonist mode", "result": 9060.0, "unit": "RLU"},
      {"measurement": "Mean RLU", "setting": "[1]; [Compound] 1.00E−11 M, agonist mode", "result": 10500.0, "unit": "RLU"},
      {"measurement": "Mean RLU", "setting": "[1]; [Compound] 1.00E−12 M, agonist mode", "result": 10340.0, "unit": "RLU"},
      {"measurement": "Mean RLU", "setting": "[1]; [Compound] 5.00E−09 M, agonist mode", "result": 13250.0, "unit": "RLU"},
      {"measurement": "Mean RLU", "setting": "[1]; [Compound] 5.00E−10 M, agonist mode", "result": 9520.0, "unit": "RLU"},
      {"measurement": "activation of VIPR1", "setting": "[1]; agonist mode, FIG. 3", "result": "fully activate VIPR1"},
      {"measurement": "interaction with VIPR2", "setting": "[2]", "result": "does not interact substantially with VIPR2"},
      {"measurement": "activation of VIPR2", "setting": "[2]; FIG. 3", "result": "not activate VIPR2"},
      {"measurement": "Mean RLU", "setting": "[2]; [Compound] 1.00E−07 M", "result": 5920.0, "unit": "RLU"},
      {"measurement": "Mean RLU", "setting": "[2]; [Compound] 1.00E−08 M", "result": 9580.0, "unit": "RLU"},
      {"measurement": "Mean RLU", "setting": "[2]; [Compound] 1.00E−09 M", "result": 5960.0, "unit": "RLU"},
      {"measurement": "Mean RLU", "setting": "[2]; [Compound] 1.00E−10 M", "result": 7560.0, "unit": "RLU"},
      {"measurement": "Mean RLU", "setting": "[2]; [Compound] 1.00E−11 M", "result": 9250.0, "unit": "RLU"},
      {"measurement": "Mean RLU", "setting": "[2]; [Compound] 1.00E−12 M", "result": 8960.0, "unit": "RLU"},
      {"measurement": "Mean RLU", "setting": "[2]; [Compound] 5.00E−07 M", "result": 10200.0, "unit": "RLU"},
      {"measurement": "Mean RLU", "setting": "[2]; [Compound] 5.00E−08 M", "result": 9200.0, "unit": "RLU"},
      {"measurement": "Mean RLU", "setting": "[2]; [Compound] 5.00E−09 M", "result": 3560.0, "unit": "RLU"},
      {"measurement": "Mean RLU", "setting": "[2]; [Compound] 5.00E−10 M", "result": 9620.0, "unit": "RLU"}
    ]},
    {"compound": "Antisauvagine-30", "values": [
      {"measurement": "Kd", "setting": "[3]", "result": 14, "unit": "nM"},
      {"measurement": "Kd", "setting": "[4]", "result": 1540, "unit": "nM"},
      {"measurement": "pA2, inhibition of sauvagine-stimulated cAMP accumulation", "setting": "[5]", "result": "accumulation in HEK-mCRF2β cells (pA2=849) Prevents stress-"}
    ]},
    {"compound": "Astressin", "values": [
      {"measurement": "Ki", "setting": "[6]", "result": 15, "unit": "nM"}
    ]},
    {"compound": "Calcitoninreceptor-stimulating peptide-1 (SCNTATCMTHRLVGLLSRSGSMVRSNLLPTKMGFKVFG-NH2; ends and bridges not checked; UniProt Q862B1 81-118, looked up)", "values": [
      {"measurement": "ED50, stimulation of cAMP formation", "setting": "[7]; calcitonin (CT) receptor", "result": "02", "unit": "nM"},
      {"measurement": "potency of cAMP formation relative to CT", "setting": "[7]; greater than CT", "result": 350, "unit": "fold"},
      {"measurement": "activity at CGRP and adrenomedullin receptors", "setting": "[8]", "result": "no activity at calcitonin-gene related peptide (CGRP) and adrenomedullin"}
    ]},
    {"compound": "Neuromedin N (rat, mouse, porcine, canine) (KIPYIL; Neuromedin N; UniProt P20068 142-147, looked up)", "values": [
      {"measurement": "IC50", "setting": "[9]", "result": 167, "unit": "nM"}
    ]},
    {"compound": "des-His1-{Glu9}-Glucagon (1-29) amide", "values": [
      {"measurement": "pA2 for inhibition of glucagon-induced adenylyl cyclase activation", "setting": "[10]", "result": "(Glucagon receptor antagonist (pA2=72 for inhibition of glucagon-induced"}
    ]},
    {"compound": "glucagon-like peptide-1 [GLP-1]", "values": [
      {"measurement": "plasma half-life", "setting": "[11]", "result": 2, "unit": "min"}
    ]},
    {"compound": "{Ala2,8,9,11,19,22,24,25,27,28}-VIP", "values": [
      {"measurement": "IC50", "setting": "[12]", "result": "115 to 132", "unit": "nM"},
      {"measurement": "IC50", "setting": "[13]", "result": "> 30000", "unit": "nM"}
    ]}
  ]
}
